Measurements from article PMC3423592 (ACS chemical biology, 2012).
Values belong to the compound of their own block, whether it stands above or below them.

What was measured:
4T1 cells = assay: 4T1 cell growth in 3D culture; format: cell-based; conditions: 3 μM GNF-2 added to 10 μM compound 4
c-Src = c-Src (Gallus gallus, UniProt P00523); assay: continuous fluorimetric biochemical inhibition assay, c-Src; set-up: species or system chicken; conditions: read-out: Ki, c-Src; ATP = 100 μM, substrate peptide = 45 μM
HT-29 = assay: cell growth inhibition assay; format: cell-based; conditions: read-out: GI50, HT-29; 72 h, WST-1
SK-BR-3 = assay: cell growth inhibition assay; format: cell-based; conditions: read-out: GI50, SK-BR-3; 72 h, WST-1
MCF7 = assay: cell growth inhibition assay; format: cell-based; conditions: read-out: GI50, MCF7; 72 h, WST-1
MDA-MB-453 = assay: cell growth inhibition assay; format: cell-based; conditions: read-out: GI50, MDA-MB-453; 72 h, WST-1
NIH-3T3 = assay: cell growth inhibition assay; format: cell-based; conditions: read-out: GI50, NIH-3T3; 72 h, WST-1; non-cancer cell line
ErbB2 = ErbB2 (Homo sapiens, UniProt P04626); assay: KINOMEscan profiling, ErbB2; conditions: 10 μM
ErbB2, sequence (P04626 23-1255): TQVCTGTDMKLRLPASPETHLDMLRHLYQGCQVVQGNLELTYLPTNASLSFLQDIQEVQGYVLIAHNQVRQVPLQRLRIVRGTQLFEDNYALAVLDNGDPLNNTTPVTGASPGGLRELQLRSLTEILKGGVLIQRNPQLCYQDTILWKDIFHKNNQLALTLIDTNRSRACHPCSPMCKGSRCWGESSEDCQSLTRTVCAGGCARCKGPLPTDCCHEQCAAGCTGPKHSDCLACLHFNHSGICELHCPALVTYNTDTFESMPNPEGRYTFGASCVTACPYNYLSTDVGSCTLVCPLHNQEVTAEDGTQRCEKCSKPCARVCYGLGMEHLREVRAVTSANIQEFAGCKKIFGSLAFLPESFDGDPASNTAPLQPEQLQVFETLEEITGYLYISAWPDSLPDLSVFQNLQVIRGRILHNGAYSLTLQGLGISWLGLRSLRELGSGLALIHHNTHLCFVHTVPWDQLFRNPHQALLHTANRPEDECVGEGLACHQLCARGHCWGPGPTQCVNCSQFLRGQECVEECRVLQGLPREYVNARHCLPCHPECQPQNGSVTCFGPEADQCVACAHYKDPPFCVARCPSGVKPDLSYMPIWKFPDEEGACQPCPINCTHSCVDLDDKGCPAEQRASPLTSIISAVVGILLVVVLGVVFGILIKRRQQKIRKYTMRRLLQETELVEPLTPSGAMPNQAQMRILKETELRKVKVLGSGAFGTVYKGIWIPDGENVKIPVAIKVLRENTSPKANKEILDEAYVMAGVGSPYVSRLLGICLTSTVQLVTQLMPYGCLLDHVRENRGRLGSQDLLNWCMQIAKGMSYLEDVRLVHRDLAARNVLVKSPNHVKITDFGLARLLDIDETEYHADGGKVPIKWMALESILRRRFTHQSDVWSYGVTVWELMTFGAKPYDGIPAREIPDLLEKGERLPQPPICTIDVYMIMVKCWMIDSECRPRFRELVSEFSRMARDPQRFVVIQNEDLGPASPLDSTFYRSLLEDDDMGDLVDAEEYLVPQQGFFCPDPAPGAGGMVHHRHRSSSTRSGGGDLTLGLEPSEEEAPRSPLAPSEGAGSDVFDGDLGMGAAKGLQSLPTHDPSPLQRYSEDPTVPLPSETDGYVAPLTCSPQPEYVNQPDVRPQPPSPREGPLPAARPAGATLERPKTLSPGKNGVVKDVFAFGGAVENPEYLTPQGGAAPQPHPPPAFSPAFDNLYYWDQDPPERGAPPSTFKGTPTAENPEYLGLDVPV

ErbB3 = ErbB3 (Homo sapiens, UniProt P21860); assay: KINOMEscan profiling, ErbB3; conditions: 10 μM
ErbB3, sequence (P21860 20-1342): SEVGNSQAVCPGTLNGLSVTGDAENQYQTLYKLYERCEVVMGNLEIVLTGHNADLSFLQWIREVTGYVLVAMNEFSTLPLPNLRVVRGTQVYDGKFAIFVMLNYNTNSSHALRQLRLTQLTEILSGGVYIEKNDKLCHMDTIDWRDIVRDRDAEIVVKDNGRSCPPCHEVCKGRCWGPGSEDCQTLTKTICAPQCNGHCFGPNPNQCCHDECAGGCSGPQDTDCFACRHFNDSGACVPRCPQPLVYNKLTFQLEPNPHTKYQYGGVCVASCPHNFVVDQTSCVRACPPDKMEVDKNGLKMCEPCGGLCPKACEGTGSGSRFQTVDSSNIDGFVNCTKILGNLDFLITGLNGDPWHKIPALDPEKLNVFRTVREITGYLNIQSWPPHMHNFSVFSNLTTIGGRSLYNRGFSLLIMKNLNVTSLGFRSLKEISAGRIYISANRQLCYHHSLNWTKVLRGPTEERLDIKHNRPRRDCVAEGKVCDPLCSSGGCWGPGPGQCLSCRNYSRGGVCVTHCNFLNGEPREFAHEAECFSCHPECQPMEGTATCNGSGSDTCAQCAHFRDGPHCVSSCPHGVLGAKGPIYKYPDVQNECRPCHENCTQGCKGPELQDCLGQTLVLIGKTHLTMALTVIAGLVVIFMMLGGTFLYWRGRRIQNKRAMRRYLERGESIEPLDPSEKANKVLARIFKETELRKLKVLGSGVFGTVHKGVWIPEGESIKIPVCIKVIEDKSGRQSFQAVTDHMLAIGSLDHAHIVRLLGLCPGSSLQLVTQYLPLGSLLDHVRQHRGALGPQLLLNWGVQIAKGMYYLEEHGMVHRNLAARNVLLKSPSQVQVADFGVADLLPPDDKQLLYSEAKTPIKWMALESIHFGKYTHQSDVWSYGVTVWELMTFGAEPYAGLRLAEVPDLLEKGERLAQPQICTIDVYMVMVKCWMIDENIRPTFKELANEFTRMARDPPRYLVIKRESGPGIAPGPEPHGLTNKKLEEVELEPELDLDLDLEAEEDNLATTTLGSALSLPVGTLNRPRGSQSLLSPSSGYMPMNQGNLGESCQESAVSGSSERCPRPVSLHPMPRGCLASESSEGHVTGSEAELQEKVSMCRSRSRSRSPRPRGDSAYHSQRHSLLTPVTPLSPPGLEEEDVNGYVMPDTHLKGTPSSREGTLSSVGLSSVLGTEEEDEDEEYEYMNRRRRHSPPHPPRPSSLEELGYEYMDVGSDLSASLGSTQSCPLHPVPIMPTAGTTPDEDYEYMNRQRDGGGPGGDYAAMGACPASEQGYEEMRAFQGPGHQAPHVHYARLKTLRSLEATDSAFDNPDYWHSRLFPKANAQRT

[1] = system: diverse panel of 200 kinases; assay: KINOMEscan ATP-site competition binding, diverse kinase panel profiling; conditions: 10 μM
[2] = system: diverse panel of 200 kinases; conditions: in this panel; cited from earlier work

SMILES: NC(=O)c1cccc(-c2cc(Nc3ccc(OC(F)(F)F)cc3)ncn2)c1 [GNF-2]
4T1 cell proliferation in 3D culture, effect of co-dosing (4T1 cells): mitigates effects of compound 4

Ki (c-Src): 0.033 µM
GI50 (HT-29): 48 µM
GI50 (SK-BR-3): > 100 µM
GI50 (MCF7): > 100 µM
GI50 (MDA-MB-453): 14 µM
inhibition of ErbB2 in profiling (ErbB2): significantly inhibits
inhibition of ErbB3 in profiling (ErbB3): significantly inhibits
number of kinases with >95% displacement from an immobilized ligand [1]: 56
number of kinases with >99% displacement from an immobilized ligand [1]: 24
SMILES: CC(C)(C)n1nc(-c2ccc(Cl)cc2)c2c(N)ncnc21 [PP2]
GI50 (NIH-3T3): 17 µM

SMILES: Cc1nc(Nc2ncc(C(=O)Nc3c(C)cccc3Cl)s2)cc(N2CCN(CCO)CC2)n1 [dasatinib]
S35 selectivity score [2]: 0.27
